Measured values reported in PubChem BioAssay (NCI).
Several values for one entry are separate records, joined by “and”; a condition that tells them apart may be missing. Equal values may be shown once.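 48-hour exposure; five concentrations; linearly interpolated endpoints. GI50: concentration for 50% inhibition of growth. TGI: concentration producing complete growth inhibition.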

Assays:
Assay in all cases: NCI tumour cell line growth inhibition, 48 h
786-0 renal = system: 786-0 renal
DLD-1 colon = system: DLD-1 colon
DMS 114 small cell lung = system: DMS 114 small cell lung
DMS 273 small cell lung = system: DMS 273 small cell lung
HOP-18 NSCLC = system: HOP-18 NSCLC
HT29 colon = system: HT29 colon
K-562 leukemia = system: K-562 leukemia
KM20L2 colon = system: KM20L2 colon
LXFL 529 NSCLC = system: LXFL 529 NSCLC
M19-MEL melanoma = system: M19-MEL melanoma
OVCAR-5 ovarian = system: OVCAR-5 ovarian
OVCAR-8 ovarian = system: OVCAR-8 ovarian
SF-268 CNS = system: SF-268 CNS
SNB-78 CNS = system: SNB-78 CNS
XF 498 CNS = system: XF 498 CNS

| SMILES | TGI (786-0 renal) | TGI (DLD-1 colon) | GI50 (DMS 114 small cell lung) | TGI (DMS 114 small cell lung) | TGI (DMS 273 small cell lung) | TGI (HOP-18 NSCLC) | TGI (HT29 colon) [µM] | TGI (K-562 leukemia) | TGI (KM20L2 colon) | TGI (LXFL 529 NSCLC) | TGI (M19-MEL melanoma) | TGI (OVCAR-5 ovarian) | TGI (OVCAR-8 ovarian) | TGI (SF-268 CNS) | TGI (SNB-78 CNS) | GI50 (XF 498 CNS) | TGI (XF 498 CNS) |
| --- | --- | --- | --- | --- | --- | --- | --- | --- | --- | --- | --- | --- | --- | --- | --- | --- | --- |
| COc1cc(C2c3cc4c(cc3[C@@H](NCCN3CCCCC3)C3COC(=O)[C@H]23)OCO4)cc(OC)c1O (stereo not given in full) | 1.01 µM and 0.808 µM | 6.78 µM and 10.2 µM | 0.51 µM and 1.64 µM | 10.9 µM and 16 µM | 1.27 µM and 1.44 µM | 3.73 µM and 29.4 µM | 3.56 | 20.8 µM and 18 µM | 8.14 µM and 11.5 µM | 14.5 µM and 15.2 µM | 5.4 µM and 4.14 µM | 5.06 µM and 5.73 µM | 2.45 µM and 3.41 µM | 6 µM and 15.8 µM | 8.09 µM and 23.3 µM | 0.585 µM and 1.27 µM | 4.01 µM and 4.2 µM |
| CN(C(=O)c1ccc(Cl)cc1)C(=S)N1CCN(c2ccccn2)CC1 | > 100 µM | > 100 µM | – | > 100 µM | > 100 µM | > 100 µM | > 100 | > 100 µM | > 100 µM | > 100 µM | > 100 µM | > 100 µM | > 100 µM | > 100 µM | > 100 µM | – | – |
| Nc1ccc(C(=O)NN2C(=O)C(Cl)C2c2cc(Br)ccc2O)cc1 (stereo not given) | > 100 µM | > 100 µM | – | > 100 µM | > 100 µM | – | > 100 | > 100 µM | > 100 µM | > 100 µM | > 100 µM | > 100 µM | > 100 µM | > 100 µM | > 100 µM | – | > 100 µM |
| COc1cc(Cl)cc(N(O)C(C)=O)c1OCc1ccccc1 | > 100 µM | > 100 µM | – | 71.5 µM | > 100 µM | > 100 µM | > 100 | > 100 µM | > 100 µM | > 100 µM | > 100 µM | > 100 µM | > 100 µM | > 100 µM | > 100 µM | – | > 100 µM |
| COc1ccc(N(C)Sc2ccccc2)cc1 | 34.9 µM | > 100 µM | – | > 100 µM | > 100 µM | > 100 µM | – | > 100 µM | > 100 µM | > 100 µM | > 100 µM | > 100 µM | > 100 µM | > 100 µM | > 100 µM | – | 96.6 µM |
| O=C1NCCCC12CCCNC2=O | > 100 µM | – | – | > 100 µM | > 100 µM | – | > 100 | > 100 µM | > 100 µM | > 100 µM | > 100 µM | – | > 100 µM | > 100 µM | – | – | > 100 µM |
